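Grown in 96-well plates, cells were treated for 48 hours with each compound at five concentrations. Insufficient inhibition: endpoint recorded as highest concentration tested. TGI denotes the concentration required for complete inhibition of growth.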
How the values were obtained:
Assay in all cases: inhibition of tumour cell growth, NCI panel, 48 h
MDA-N = system: MDA-N
PC-3 prostate = system: PC-3 prostate
SNB-75 CNS = system: SNB-75 CNS
NCI/ADR-RES ovarian = system: NCI/ADR-RES ovarian
DU-145 prostate = system: DU-145 prostate
COLO 205 colon = system: COLO 205 colon
OVCAR-5 ovarian = system: OVCAR-5 ovarian
HT29 colon = system: HT29 colon
SK-MEL-2 melanoma = system: SK-MEL-2 melanoma
NCI-H460 lung = system: NCI-H460 lung
OVCAR-4 ovarian = system: OVCAR-4 ovarian
NCI-H23 lung = system: NCI-H23 lung
U251 CNS = system: U251 CNS
HCT-116 colon = system: HCT-116 colon
SK-OV-3 ovarian = system: SK-OV-3 ovarian
SN12C renal = system: SN12C renal
CCRF-CEM leukemia = system: CCRF-CEM leukemia
SF-268 CNS = system: SF-268 CNS
M14 melanoma = system: M14 melanoma
TK-10 renal = system: TK-10 renal
SK-MEL-5 melanoma = system: SK-MEL-5 melanoma
CAKI-1 renal = system: CAKI-1 renal
EKVX NSCLC = system: EKVX NSCLC
MCF7 breast = system: MCF7 breast
SW-620 colon = system: SW-620 colon
RXF 393 renal = system: RXF 393 renal
HOP-62 NSCLC = system: HOP-62 NSCLC
SNB-19 CNS = system: SNB-19 CNS
IGROV1 ovarian = system: IGROV1 ovarian
ACHN renal = system: ACHN renal
LOX IMVI melanoma = system: LOX IMVI melanoma
MDA-MB-435 = system: MDA-MB-435
NCI-H226 lung = system: NCI-H226 lung
SF-539 CNS = system: SF-539 CNS
HCT-15 colon = system: HCT-15 colon
OVCAR-3 ovarian = system: OVCAR-3 ovarian
UO-31 renal = system: UO-31 renal
A549 NSCLC = system: A549 NSCLC
T-47D breast = system: T-47D breast
SK-MEL-28 melanoma = system: SK-MEL-28 melanoma
UACC-257 melanoma = system: UACC-257 melanoma
OVCAR-8 ovarian = system: OVCAR-8 ovarian
K-562 leukemia = system: K-562 leukemia
KM12 colon = system: KM12 colon
HL-60(TB) leukemia = system: HL-60(TB) leukemia
HCC-2998 colon = system: HCC-2998 colon
MALME-3M melanoma = system: MALME-3M melanoma
HS 578T breast = system: HS 578T breast
MDA-MB-231 breast = system: MDA-MB-231 breast
HOP-92 NSCLC = system: HOP-92 NSCLC
SR leukemia = system: SR leukemia
MOLT-4 leukemia = system: MOLT-4 leukemia
786-0 renal = system: 786-0 renal
UACC-62 melanoma = system: UACC-62 melanoma
SF-295 CNS = system: SF-295 CNS
RPMI-8226 leukemia = system: RPMI-8226 leukemia

Measured: TGI

NCCCc1nonc1C(=O)O
> 100 µM: all assays above

From PubChem BioAssay (NCI)
